# In US6930103B2, “Use of vasopeptidase inhibitors in the treatment of metabolic diseases, nephropathy and advanced glycation end-product associated diseases” (Aventis Pharma Deutschland GmbH, priority 2002, dated 2005):
# Legend:
# Assay type in all cases: in vivo, rat
# ZDF rats [1] = assay: RP-HPLC analysis of CML in kidney and heart of ZDF rats; settings: for mean CML conc.: RP-HPLC, ZDF Placebo = 100
# Description: (§1) Kidney AGE values were determined by Dot blot analysis (Stracke et al., Exp. Clin. Endocrinol. Diabets 2002, 109, 330-336) and Reversed-phase high performance liquid chromatography or RP-HPLC (Drusch et al., Food Chem. 1999, 65, 547-553).
# […] Two animals of each group were analyzed. Grinding of the kidney and heart was performed in liquid nitrogen using a freezer mill (Freezer 6750, C3 Analysetechnik GmbH). Hydrolysis of the organ samples was performed with 6 M hydrochloric acid (HCl) at 110° C. for 12 hours. Sample treatment with o-phthaldialdehyde (OPA) and RP-HPLC was performed as described in Drusch et al., Food Chem. 1999, 65, 547-553.
# fat ZDF rats = assay: Histological examination of kidneys of ZDF rats after 6 months treatment; settings: in words
# Description: The protein and creatinine excretion in the urine of male Zucker Diabetic Fatty (ZDF) Rats (ZDF Gmi fa/fa) and heterozygous control animals (ZDF Gmi −/+) of 10, 17, 27 and 37 weeks age was determined. In further groups, diabetic rats were chronically given either ramipril (1 mg/kg/day, in drinking water) or a compound of formula (II-B) (30 mg/kg/day, in food) over a period from 10 to 37 weeks. The animals were sacrificied after 37 weeks, and their kidneys examined histologically.
# In the attached tables a summary of the findings on the kidneys after a treatment period of 6 months is listed.
# [2] = tested on: Zucker diabetic fatty rats; assay: HbA1c analysis in ZDF rats; settings: for HbA1c, mean: ZDF rats
# Description: (§2) Blood glucose and HbA1c was measured in 10- and 17-week-old male Zucker diabetic fatty rats (Genetic Model Inc.), control rats (Genetic Model Inc.) and male ZDF rats treated for seven weeks with 30 mg/kg/d of compound (II-B), 35 mg/kg/d of compound (III-B) and 1 mg/kg/d ramipril. Fifteen animals were analyzed in each group.
# To obtain blood samples for HbA1c determination, disposable capillary tubes were used. HbA1c values were obtained from hemolyzed whole blood samples with a turbidimetric inhibition immunoassay (Tina-quant, Roche Diagnostics GmbH) and hemoglobin concentrations were determined in a second channel on an automated clinical chemistry analyzer (Boehringer Mannheim/Hitachi 912). HbA1c concentration in percent were calculated from HbA1c to total hemoglobin.
# ZDF rats [3] = assay: Dot blot analysis of kidney AGE subtypes (CML, CEL, pentosidine) in ZDF rats
# Description: as §1
# Kidney-samples for the dot blot analysis were obtained from 17-week-old male ZDF rats, control rats and ZDF rats treated for seven weeks with 30 mg/kg/d of compound (II-B) and 35 mg/kg/d of compound (III-B). Three animals of each group were sacrificed, the kidneys removed and immediately frozen in liquid nitrogen. Grinding of the kidneys was performed in liquid nitrogen using a freezer mill (Freezer 6750, C3 Analysetechnik GmbH). Kidney sample (10 mg) was dissolved in 1 ml phosphate buffered saline (PBS containing 0.5 g/l Tween 20, 0.5 mM PMSF, […]). The solution was treated two times for five seconds with an ultrasonic cell disrupter (45% power, Bandolin Sonoplus HD 2070), centrifuged for 20 minutes at 4000 rpm and the supernatant was used for dot blot analysis. The nitrocellulose membrane was placed in the dot blot apparatus and washed twice with Tris Buffered Saline (TBS), 100 μl TBS/well. For each sample, 10 μg protein (protein concentration of the samples were determined with the DC Protein Assay, Bio Rad) was diluted in 100 μl TBS and loaded on to the nitrocellulose membrane (Amersham). The membrane was incubated over night in TBS with Tween 20 (TBST; 20 mM Tris, 137 mM NaCl, 0.05% v/v Tween 20) with 5% non-fat dry milk at 4° C. and incubated for 1 hour at room temperature using the following antibody concentration: anti-CML 011 (Biologo) 0.25 μg/ml, anti-CEL (Biologo) 0.25 μg/ml and anti-pentosidine 012 (Biologo) 0.25 μg/ml. After extensive washing in TBST with 5% non-fat dry milk, membranes were exposed to […] anti-mouse IgG antibodies (Dianova) for one hour at room temperature. Membranes were washed again and exposed to the enhanced chemofluorescence detection system (Amersham) according to manufacturer's instructions. Relative fluorescence was determined with the Fluor-Imager 595 (Molecular Dynamics) and quantified using the Image-Quant software. Results were expressed in relative fluorescence (rf) times 10^5 (rf*10^5).
# [4] = tested on: Zucker diabetic fatty rats; assay: Blood glucose analysis in ZDF rats; settings: for blood glucose, mean: ZDF rats
# Description: as §2
# Blood samples for glucose determination were obtained from ZDF rats using standard sampling tubes. Within 30 minutes of collection, samples were separated from the cells by centrifugation. Quantitative determination of blood glucose in serum was performed with an enzymatic in vitro test from Roche Diagnostics GmbH (Gluco-quant, Roche Diagnostics GmbH) using the automated clinical chemistry analyzer Boehringer Mannheim/Hitachi 912.
# [5] = age 10 weeks (start of treatment)
# [6] = age 17 weeks (treated for seven weeks)
# [7] = 17-week-old ZDF rats treated for seven weeks, dot blot
smiles,measurement,setting,value
CC(=O)S[C@@H](Cc1ccccc1)C(=O)N[C@H]1Cc2ccccc2[C@H]2CCC[C@@H](C(=O)O)N2C1=O [cpd. (III-B)],mean CML conc.,ZDF rats [1]; hearts of 17-week-old ZDF rats,66%
same,mean CML conc.,ZDF rats [1]; kidneys of 17-week-old ZDF rats,60%
same,mean CML conc.,ZDF rats [1]; kidneys of 37-week-old ZDF rats,93%
same,CML concentration in the heart of 17-week-old ZDF rats,ZDF rats [1]; in words,also reduces
same,CML concentration in the kidneys of 17-week-old ZDF rats,ZDF rats [1]; in words,also reduces
same,Incidence of glomerulosclerosis or associated degenerative lesions compared to fat ZDF controls,fat ZDF rats,no differences
same,HbA1c values compared to the untreated ZDF rats,"[2]; 17-week-old ZDF rats, in words",significantly lower
same,"HbA1c, mean",[2]; [5],5.60%
same,"HbA1c, mean",[2]; [6],7.19%
same,HbA1c value compared with the ACE inhibitor ramipril,[2]; in words,lower values
same,"AGE-subtype CEL in the kidneys (anti-CEL), mean",ZDF rats [3]; [7],52.60 rf * 10^5
same,"AGE-subtype CML in the kidneys (anti-CML 011), mean",ZDF rats [3]; [7],38.67 rf * 10^5
same,"AGE-subtype pentosidine in the kidneys (anti-pentosidine 012), mean",ZDF rats [3]; [7],40.70 rf * 10^5
same,Kidney AGE (Nε-(carboxymethyl)lysine or CML) values,"ZDF rats [3]; diabetic rats, summary in words",lowers the CML value significantly
same,AGE values for subtype CEL compared to untreated ZDF rats,"ZDF rats [3]; kidney, dot blot, in words",Lower AGE values
same,AGE values for subtype pentosidine compared to untreated ZDF rats,"ZDF rats [3]; kidney, dot blot, in words",Lower AGE values
same,Blood glucose concentration compared to the untreated ZDF rats,"[4]; 17-week-old ZDF rats, in words",significantly lower
same,"blood glucose, mean",[4]; [5],10.37 mM
same,"blood glucose, mean",[4]; [6],19.74 mM
same,Blood glucose value compared with the ACE inhibitor ramipril,[4]; in words,lower values
